Here are results for 1 compound from patent US10709788B2, “Chitosan magnetic particle drug carrier, drug structure, and method of making” (GENE'E TECH CO., LTD., priority 2018, dated 2020).

The subject of assay [1] is H. pylori. The assay can be described thus: Test of inhibition of H. pylori by drug structure (OD 450 nm, bacterial inhibition rate). It counts as cell-based. The settings on record: seven strains; added at minimum inhibitory concentration; 37° C., anaerobic, 48 hours. The protocol: First, bacterial fluids of seven different strains of H. pylori are provided. […] The bacterial fluids of the seven different strains of H. pylori are placed in four 15 ml microcentrifuge tubes, respectively. Each microcentrifuge tube contains 5 ml of H. pylori bacterial fluid. The four microcentrifuge tubes are defined as experimental group 1, experimental group 2, experimental group 3 and control group, respectively. Then, amoxicillin of the minimum inhibitory concentration is added to experimental group 1 of each strain of H. pylori, sample 3 (i.e., drug carrier) of the minimum inhibitory concentration is added to experimental group 2 of each strain of H. pylori, sample C (i.e., drug structure) of amoxicillin of the minimum inhibitory concentration is added to experimental group 3 of each strain of H. pylori, and nothing is added to the control group. Afterward, experimental groups 1-3 and control group of each strain of H. pylori are placed in an incubator to be cultured therein at 37° C., in an anaerobic environment, and for 48 hours. At the end of the 48-hour culturing process, bacterial fluids are extracted from the experimental groups 1-3 and control group of the strains of H. pylori, respectively. OD values of the bacterial fluid of the experimental groups and the bacterial fluid of the control group are measured with a spectrophotometer at a wavelength of 450 nm. […]

The subject of assay [2] is H. pylori. The assay is described as follows: minimum inhibitory concentrations (MIC) for seven strains of H. pylori. The settings on record: Helicobacter pylori, read-out: minimum inhibitory concentration (MIC). It counts as cell-based.

In brackets after ≈: the same amount, converted by molar mass. Read-outs that look alike come from different tables or passages of the source.

Take `CC1(C)S[C@@H]2[C@H](NC(=O)[C@H](N)c3ccc(O)cc3)C(=O)N2[C@H]1C(=O)O` [amoxicillin]: the “inhibitory effect on H. pylori” value with H. pylori [1] was “different degrees of inhibition efficacy”. Moreover, the MIC was determined as 0.5 µg/mL (≈ 1.37 µM) in the assay with H. pylori [2] (H. pylori strain NO. 125-54); 0.25 µg/mL (≈ 0.684 µM) with H. pylori [2] (H. pylori strain NO. 125-56); 0.25 µg/mL (≈ 0.684 µM) in the assay on H. pylori [2] (H. pylori strain NO. 125-57); 0.016 µg/mL (≈ 0.0438 µM) with H. pylori [2] (H. pylori strain NO. 126-6); 0.0625 µg/mL (≈ 0.171 µM) in the assay with H. pylori [2] (H. pylori strain NO. 127-4); 0.0625 µg/mL (≈ 0.171 µM) in the assay on H. pylori [2] (H. pylori strain NO. 127-9). For the same compound, the MIC in the assay on H. pylori [2] (H. pylori strain NO. 127-10) was found to be 0.125 µg/mL (≈ 0.342 µM).
